# Test results as given in US20220313650A1, “METHODS FOR TREATING NEURODEVELOPMENTAL DISORDERS” (The Broad Institute, Inc., priority 2019, published 2022).
# “Also recorded” adds a separate entry of the source.
# Experiments:
# WT TRN neurons = assay: Whole-cell patch-clamp rebound burst firing in acute brain slices, WT mice; format: cell-based
# Description: (§1) For conducting slice electrophysiology analysis, whole-cell patch-clamp recordings were performed using horizontal slices for the rebound bursting assays and angled-coronal thalamocortical slices for the synaptic optogenetics experiments (Agmon et al., 1991). 21-35 day old male C57BL6 mice and Ptchd1 Y/− (knockout) mice were used. Animals were transcardially perfused under isoflurane anesthesia with an ice-cold cutting solution (194 mM Sucrose, 30 mM NaCl, 4.5 mM KCl, 1.2 mM NaH2PO4, 10 mM Glucose, 2 mM MgCl2, 0.2 mM CaCl2, and 26 mM NaHCO3). Mice were then decapitated and the brains were carefully dissected out. Both cerebellum and olfactory bulb were removed from the brain and were placed and glued onto the stage of a Leica Vibratome with the ventral surface down and the pial surface towards the blade. 250 micron thick slices containing the TRN were then collected and recovered in regular artificial cerebrospinal fluid (aCSF; 119 mM NaCl, 2.3 mM KCl, 1 mM NaH2PO4; 11 mM Glucose, 1.3 mM MgCl2, 2.5 mM CaCl2), 26 mM NaHCO3) heated to 32° C. for 10 minutes and then at room temperature for at least 1 hr. All buffers were continuously bubbled with 95% O2/5% C02. Slices were then transferred to a submersion recording chamber where they were perfused with aCSF at a rate of 2 ml/min at room temperature. Patch recording pipettes were pulled using a Flaming/Brown micropipette puller (Sutter Instruments) and Borosilicate glass (KG33, King Precision Glass). The DC resistances were ˜4-6 MΩ. Potassium methanesulfonate based internal solution (140 mM KMeSO3; 10 mM KCl; 10 mM HEPES; 0.1 mM EGTA; 4 mM Mg-ATP; 0.2 mM Na-GTP; 10 mM hosphocreatine) was used. Neurons were visualized using infrared differential interference contrast (IR-DIC) microscopy (Olympus, BX51W1) with an upright microscope digital camera.
# The recordings were made with a microelectrode amplifier with bridge and voltage clamp modes of operation (Multiclamp 700B, Molecular Devices, San Jose, Calif., USA). Signals were low-pass filtered at 2 kHz and sampled at 10-20 kHz with a Digidata 1440A (Molecular Devices, San Jose, Calif., USA). Data were stored on a computer for subsequent off-line analysis. Cells with the series resistance (Rs, typically 8-12 MΩ) changed by >20% were excluded for data analysis. In addition, cells with Rs more than […] at any time during the recordings were discarded.
# Ptchd1 KO mice [1] = assay: Open field test of locomotor activity, Ptchd1 KO mice; format: in vivo
# Description: (§2) For performing the open field test, mice were allowed to habituate to the behavioral testing room for 1 hour before the experiment. The locomotor activity in mice was evaluated over a 90 minute period in an automated Omnitech Digiscan apparatus (AccuScan Instruments). Locomotor activity was assessed as total distance traveled (m). For drug treatment experiments, mice received an intraperitoneal injection 15 minutes before the assay and then where placed kindly in the left corner, head facing into the corner.
# (§3) The effects of mGluR2/3 activation on the locomotor activity of WT mice and Ptchd1 mutant mice were evaluated. In brief, all mice were treated with mGluR2/3 agonist, LY379268, at three different dosages (1 mg/kg, 5 mg/kg and 10 mg/kg) for open-field testing.
# (§4) Here, whether mGluR3 activation would rescue the hyperactivity phenotype of Ptchd1 KO mice was evaluated. Locomotor activity estimated as total distance travelled (in) was assessed over a 90 min period in an automated Omnitech Digiscan apparatus. For drug treatment experiments, mice were placed in the open-field arena for 30 minutes prior to Mavalon 63 (5 mg/kg and 10 mg/kg in saline; i.p.), or vehicle injections before being returned to the arena.
# WT mice = assay: Open field test of locomotor activity, WT mice; format: in vivo
# Description: as §2, §3, §4
# thalamo-TRN synapses = assay: Optogenetically evoked EPSCs in patched TRN neurons, thalamo-TRN pathway; format: cell-based, mice; conditions: thalamo-TRN synapses, before vs after bath perfusion
# Description: as §1, with “camera. […]” for “camera.”
# (§5) After allowing 1-2 weeks for mcherry-dflox.hChR2.EF1.AAV1 expression, acute somatosensory thalamocortical or horizontal brain slices were freshly obtained for in vitro recording and optogenetic stimulation (250 um thick, thalamocortical slices containing TRN from angled-coronal sections; Agmon and Connors, 1991) for optogenetic analysis. In brief, patch clamp recordings in voltage clamp configuration were performed while the Cortico-TRN or Thalamic-TRN pathway was activated by applying a blue LED (400-450 nm) light pulses (Lumen 300-LED Fluorescence Excitation Illumination System). For synaptic stimulation, neurons were held at −70 mV while 0.1-1.5 ms flashes were delivered directly to the recorded cell soma delivered through the 40× water immersion objective. […]
# cortico-TRN synapses = assay: Optogenetically evoked EPSCs in patched TRN neurons, cortico-TRN pathway; format: cell-based, mice; conditions: cortico-TRN synapses, before vs after bath application
# Description: as §1
# To study the changes in the acute somatosensory thalamocortical or horizontal brain areas, 21-25 days old Nex-Cre or VgluT2-Cre mice were anesthetized with isoflurane while placed in a small animal stereotaxic apparatus (David Kopf Instruments, CA, USA) and were injected bilaterally with 280 nl of mcherry-dflox.hChR2.EF1.AAV1 using a Nanoject (Drummond Scientific, Broomall, Pa.) via glass pipettes with […] diameter tips in somatosensory cortex (S1) and ventrobasal thalamic complex (VB). Coordinates from the bregma for S1: AP −0.7, ML 2.4 and DV 1.2 and for VB: AP −1.6, ML 1.5 and DV 3.5. The pipette was held in the final position for 10 min after injection before withdrawal from the brain. The incision was closed with vetbond and after surgery mice were injected with analgesics (SR-Bupronex 1 mg/kg) every 72 hours or as needed. […]
# as §5
# wild type mice = assay: EEG/EMG sleep recording, WT mice; format: in vivo; conditions: Mavalon 63 10 mg/kg ip, 12 h recordings, 10 mg/kg
# From the text: For EEG recording studies, 8- to 12-week-old male mice with C57Bl/6J background, Ptchd1Y/− (knockout) and Ptchd1Y/+ (wild type) were deeply anesthetized with a 1% to 1.5% isoflurane. A screw electroencephalography (EEG) electrode (catalog no. 8403; Pinnacle Technology, Inc.) was implanted into the skull above the primary somatosensory cortex, S1 (AP: −1.8 and ML: +3.0 mm) using a stereotaxic device (David Kopf Instruments). A reference electrode was screwed in the occipital region of the skull and stainless steel electromyography (EMG) electrodes were placed in the nuchal muscle. All the electrodes were connected to a head-mount (catalog no. 8201-SS; Pinnacle Technology) and secured by using dental cement. The mice were allowed to recover for at least 2 weeks. Spontaneous EEG/EMG signals were recorded for 12 hours with a differential amplifier (8200-K1-SL amplifier; Pinnacle Technology). […] Data were analyzed offline using Matlab (R2016a; MathWorks). The spectral power was calculated in 0.5-Hz bins (fast Fourier transform with Hamming window) with artifact-free 4-hour EEG signals from each animal. […]
# (§6) EEG and EMG from the frontal and parietal cortex and from the nuchal muscular complex were simultaneously recorded.
# (§7) Surface electroencephalography (EEG) and electromyography (EMG) from the frontal and parietal cortex and from the nuchal muscular complex were simultaneously recorded.
# Ptchd1 KO mice [2] = assay: EEG/EMG sleep recording, Ptchd1 KO mice; format: in vivo; conditions: Ptchd1 KO mice, Mavalon 63 10 mg/kg ip, 12 h recordings; 10 mg/kg
# From the text: For EEG recording studies, 8- to 12-week-old male mice with C57Bl/6J background, Ptchd1Y/− (knockout) and Ptchd1Y/+ (wild type) were deeply anesthetized with a 1% to 1.5% isoflurane. A screw electroencephalography (EEG) electrode (catalog no. 8403; Pinnacle Technology, Inc.) was implanted into the skull above the primary somatosensory cortex, S1 (AP: −1.8 and ML: +3.0 mm) using a stereotaxic device (David Kopf Instruments). A reference electrode was screwed in the occipital region of the skull and stainless steel electromyography (EMG) electrodes were placed in the nuchal muscle. All the electrodes were connected to a head-mount (catalog no. 8201-SS; Pinnacle Technology) and secured by using dental cement. The mice were allowed to recover for at least 2 weeks. Spontaneous EEG/EMG signals were recorded for 12 hours with a differential amplifier (8200-K1-SL amplifier; Pinnacle Technology). All signals were digitized at a sampling frequency of 1,000 Hz, filtered (1-100 Hz bandpass for EEG; 10-1 kHz bandpass for EMG), and acquired using Sirenia Acquisition program (Pinnacle Technology). Data were analyzed offline using Matlab (R2016a; MathWorks). The spectral power was calculated in 0.5-Hz bins (fast Fourier transform with Hamming window) with artifact-free 4-hour EEG signals from each animal. The power for the spectral band was normalized in reference to the power of the entire EEG spectrum (1-100 Hz) in each animal and averaged across all the animals in the same treatment or drug condition.
# as §6, §7
# Ptchd1 KO TRN neurons = assay: Whole-cell patch-clamp rebound burst firing in acute brain slices, Ptchd1 KO mice; format: cell-based; conditions: Mavalon 63
# Description: as §1, with “Patch recording pipettes were pulled using a Flaming/Brown micropipette puller (Sutter Instruments) and Borosilicate glass (KG33, King Precision Glass). The DC resistances were ˜4-6 MΩ. Potassium methanesulfonate based internal solution (140 mM KMeSO3; 10 mM KCl; 10 mM HEPES; 0.1 mM EGTA; 4 mM Mg-ATP; 0.2 mM Na-GTP; 10 mM hosphocreatine) was used. Neurons were visualized using infrared differential interference contrast (IR-DIC) microscopy (Olympus, BX51W1) with an upright microscope digital camera.” left out
Compound,"rebound burst firing, occlusion experiment (WT TRN neurons; LY379268 applied in the presence of (after pretreatment with) ML337)","number of rebound burst firings (WT TRN neurons; TRN neurons, ML337 5 μM bath application alone)","locomotor activity (Ptchd1 KO mice [1]; AZD8529 10, 20, 50 mg/Kg i.p., 90 minutes)","locomotor activity (WT mice; WT mice, AZD8529 three dosing levels i.p., 90 minutes)",paired-pulse ratio (PPR) (thalamo-TRN synapses),paired-pulse ratio (PPR) (cortico-TRN synapses),length of NREM sleep bout (wild type mice),"number of rebound burst firings (WT TRN neurons; WT TRN neurons, Mavalon 63 in bath, after somatic hyperpolarization pulse, holding potentials −80 mV to −50 mV)",length of NREM sleep bout (Ptchd1 KO mice [2]),repetitive rebound bursting (Ptchd1 KO TRN neurons),"locomotor activity (total distance travelled) (Ptchd1 KO mice [1]; Mavalon 63 5 mg/kg and 10 mg/kg i.p., 90 min)","locomotor activity (hyperactivity) (Ptchd1 KO mice [1]; Mavalon 63 30 mg/kg i.p., p=0.06, Bonferroni's multiple comparisons test)","hyperactivity phenotype, summary over doses (Ptchd1 KO mice [1]; Mavalon 63 5, 10, 30 mg/Kg i.p., dose-dependent manner)","locomotor activity (total distance travelled) (WT mice; WT mice, Mavalon 63 5 mg/kg and 10 mg/kg i.p., 90 min)","spontaneous locomotion activity (WT mice; wild type mice, Mavalon 63 30 mg/kg i.p.)",paired-pulse ratio (PPR) (thalamo-TRN synapses; listed as mGluR3 PAM),paired-pulse ratio (PPR) (cortico-TRN synapses; listed as mGluR3 PAM)
"COc1ccc(C#Cc2ccc(C(=O)N3CCC[C@@H](O)C3)c(F)c2)cc1 [ML337, (R)-(2-fluoro-4-((- 4-methoxy-phenyl)ethynyl)phenyl) (3-hydroxypiperidin-1-yl)methanone]",blocked LY379268-induced enhancement of rebound bursting,decrease in the repetitive rebound bursting; also recorded: reduces the repetitive burst firings; also recorded: number of rebound burst firing was reduced,–,–,–,–,–,–,–,–,–,–,–,–,–,–,–
"Cc1cc(-c2nc(CN3CCNCC3)no2)cc2c1C(=O)N(Cc1ccc(OC(F)(F)F)cc1)C2 [AZD8529, 1H-Isoindol-1-one, 2,3-dihydro-7-methyl-5-[3-(1-piperazinylmethyl)-1,2,4-oxadiazol-5-yl]-2-[[4-(trifluoromethoxy)phenyl]methyl]-]",–,–,reduced locomotor activity,reduced locomotor activity,no significant changes in the size of PPR,significant increase in the paired-pulse ratio (PPR); also recorded: significantly increased,–,–,–,–,–,–,–,–,–,–,–
"CN1C(=O)c2cccn2-c2cc(-c3ccc(F)cn3)ccc2C12CC2 [Mavalon 63, 5-Methyl-9-(5-fluoropyridin-2-yl)-spiro [benzo[f]pyrrolo[1,2-a][1,4]diazepine-6,1′-cyclopropan]-4(5H)-one]",–,–,–,–,no significant changes in the size of PPR,not significantly increased,no change was observed,significant increase in repetitive rebound bursting; also recorded: increase in the number of rebound burst firings; also recorded: Significant changes were detected at a membrane holding potentials between −70 mV and −60 mV,specifically increased the Non-REM (NREM) sleep bout length; also recorded: increased the length of NREM sleep bout,significant increase in repetitive rebound bursting,no significant effect on locomotor activity,trend of reducing the hyperactivity,able to normalize the hyperactivity phenotype,no significant effect on locomotor activity,No effect on the spontaneous locomotion activity,no significant changes in the PPR,No significant changes in PPR
